Where a name gives a salt, the structure may show the parent alone. Read-outs that look alike come from different tables or passages of the source.
Legend:
plasma DPP IV = molecular target: T1, plasma DPP IV (Rattus norvegicus, UniProt P14740); experiment: Inhibition of plasma DPP IV activity in vitro, rat plasma; assay type: biochemical
T1 construct: from tissue
Method: Studies were also conducted to assess the inhibitory effect of this compound on plasma DPP IV activity in several species.

[1] = tested on: normoglycaemic C57B1/6J mice; experiment: Oral glucose tolerance test (acute and delayed) in normoglycaemic mice; assay type: in vivo, mouse; details: for ED50: Mus musculus, po, read-out: ED50 for lowering the glucose AUC
Method: The effect of 1-[(3-cyano-pyridin-2-yl)methyl]-3-methyl-7-(2-butyn-1-yl)-8-[3-(R)-amino-piperidin-1-yl]-xanthine on glucose tolerance in normoglycaemic C57B1/6J mice was assessed according to the following protocol of an oral glucose tolerance test (OGTT).
Male C57B1/6J mice (C57BL/6J@Rj) were obtained from Janvier (France). Animals were fed ad libitum with a standard pelleted diet (Diet No. 3438 [containing 19% protein, 4.5% fat], Provimi Kliba, Switzerland) and had free access to water. Animals were individually housed with a 12 h/12 h light/dark cycle (lights out between 6 p.m. and 6 a.m.). The mice were used for the experiments at 9 weeks of age.
For the determination of the acute oral glucose tolerance test, a basal blood sample (pre-dose) was obtained in the morning from overnight fasted C57B1/6J mice (n=7 per group) by cutting the tip of the tail without anaesthesia. Subsequently, the groups received a single oral administration of either vehicle or 1-[(3-cyano-pyridin-2-yl)methyl]-3-methyl-7-(2-butyn-1-yl)-8-[3-(R)-amino-piperidin-1-yl]-xanthine monohydrochloride at doses between 0.1 and 10 mg/kg bw, followed 45 min later by an oral administration of a glucose solution (2 g/kg bw, application volume 10 ml/kg bw). Additional blood samples were taken from the tip of the tail 30 min, 60 min, 90 min, 120 min, and 180 min after the glucose load, and blood glucose was measured. A final blood sample was drawn from the retrobulbal venous plexus under isoflurane anaesthesia 30 minutes after the last bleeding from the tail. EDTA plasma was prepared from this blood sample and frozen for determination of DPP-IV activity.
For the determination of the delayed oral glucose tolerance test, C57B1/6J mice (n=5 per group) were orally administered with either vehicle or 1-[(3-cyano-pyridin-2-yl)methyl]-3-methyl-7-(2-butyn-1-yl)-8-[3-(R)-amino-piperidin-1-yl]-xanthine monohydrochloride at doses between 0.1 and 10 mg/kg bw in the afternoon before the oral glucose tolerance test. […] Additional blood samples were taken from the tip of the tail 30 min, 60 min, 90 min, 120 min, and 180 min after the glucose load, and blood glucose was measured. […]
The two-sided unpaired Student t-test was used for statistical comparison of the control group and the active groups with the 5% level as the limit of statistical significance (*, P <0.05; **, P<0.01; ***, P<0.001). […] Changes from baseline (pre-dose value) within each group were analyzed by a paired Student t-test.
The area under the curve (AUC) for the time course of blood glucose concentrations during an OGTT was calculated by the trapezoidal rule after correction for the baseline values.
ED50 values were calculated by nonlinear regression analysis with a Hill coefficient of 1. […]

plasmin = plasmin (Homo sapiens, UniProt P00747); experiment: In vitro selectivity, human proteases: plasmin; assay type: biochemical; details: up to 100 μM
Sequence of plasmin (P00747 581-810 limits assumed): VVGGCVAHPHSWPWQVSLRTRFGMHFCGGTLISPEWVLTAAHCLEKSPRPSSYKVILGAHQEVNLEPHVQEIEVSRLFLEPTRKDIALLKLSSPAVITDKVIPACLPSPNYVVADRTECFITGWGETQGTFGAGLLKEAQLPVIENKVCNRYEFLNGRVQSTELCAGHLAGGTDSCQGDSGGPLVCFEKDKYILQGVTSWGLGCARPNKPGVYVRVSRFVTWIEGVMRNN
Sequence of plasmin (P00747 97-580 partner limits assumed): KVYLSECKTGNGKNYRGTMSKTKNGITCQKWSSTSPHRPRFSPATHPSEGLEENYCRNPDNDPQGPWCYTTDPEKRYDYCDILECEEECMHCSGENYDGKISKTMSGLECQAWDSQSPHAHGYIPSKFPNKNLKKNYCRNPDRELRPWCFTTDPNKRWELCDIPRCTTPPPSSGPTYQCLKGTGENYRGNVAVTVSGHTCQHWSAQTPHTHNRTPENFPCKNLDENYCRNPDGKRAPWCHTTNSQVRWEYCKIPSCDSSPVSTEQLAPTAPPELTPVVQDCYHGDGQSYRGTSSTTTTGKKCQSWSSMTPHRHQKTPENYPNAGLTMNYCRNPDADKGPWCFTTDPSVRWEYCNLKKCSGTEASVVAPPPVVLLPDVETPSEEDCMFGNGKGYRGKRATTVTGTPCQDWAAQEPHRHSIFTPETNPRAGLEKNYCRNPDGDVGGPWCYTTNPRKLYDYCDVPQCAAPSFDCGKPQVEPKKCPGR
Excerpt: (§1) In order to determine the in vitro selectivity of 1-[(3-cyano-pyridin-2-yl)methyl]-3-methyl-7-(2-butyn-1-yl)-8-[3-(R)-amino-piperidin-1-yl]-xanthine, the ability of this compound to inhibit a number of human proteases was investigated as described in Thomas et al. (2008), J. Pharmacol. Exp. Ther., vol. 325, p. 175-182, chapter In vitro DPP-4 Inhibition Assay, p. 176.

[2] = molecular target: Prolyl-Oligo Peptidase (or Prolyl Endopeptidase) (Homo sapiens, UniProt P48147); experiment: In vitro selectivity, human proteases: Prolyl-Oligo Peptidase; assay type: biochemical; details: up to 100 μM
Sequence of Prolyl-Oligo Peptidase (or Prolyl Endopeptidase) (P48147 whole entry): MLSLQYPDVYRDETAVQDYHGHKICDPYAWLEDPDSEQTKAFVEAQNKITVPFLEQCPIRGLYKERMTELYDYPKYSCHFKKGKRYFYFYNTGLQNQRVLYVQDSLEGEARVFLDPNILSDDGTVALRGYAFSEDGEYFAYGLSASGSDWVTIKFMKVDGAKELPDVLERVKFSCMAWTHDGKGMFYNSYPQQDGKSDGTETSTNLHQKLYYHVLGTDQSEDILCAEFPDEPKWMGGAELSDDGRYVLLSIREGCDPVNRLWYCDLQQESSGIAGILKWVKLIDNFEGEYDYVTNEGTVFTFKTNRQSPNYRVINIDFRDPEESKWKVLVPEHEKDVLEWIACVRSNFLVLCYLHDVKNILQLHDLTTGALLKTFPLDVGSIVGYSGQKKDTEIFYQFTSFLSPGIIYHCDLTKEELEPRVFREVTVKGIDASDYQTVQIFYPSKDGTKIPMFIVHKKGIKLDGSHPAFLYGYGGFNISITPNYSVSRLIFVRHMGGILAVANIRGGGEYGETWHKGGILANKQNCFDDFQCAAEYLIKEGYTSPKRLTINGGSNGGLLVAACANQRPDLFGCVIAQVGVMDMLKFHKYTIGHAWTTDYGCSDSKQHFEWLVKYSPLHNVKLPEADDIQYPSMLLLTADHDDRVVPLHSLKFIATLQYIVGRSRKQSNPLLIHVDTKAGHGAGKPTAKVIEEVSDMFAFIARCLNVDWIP
Excerpt: as §1

DPP 8 = DPP 8 (Homo sapiens, UniProt Q6V1X1); experiment: In vitro selectivity, human proteases: DPP 8; assay type: biochemical
Sequence of DPP 8 (Q6V1X1 whole entry): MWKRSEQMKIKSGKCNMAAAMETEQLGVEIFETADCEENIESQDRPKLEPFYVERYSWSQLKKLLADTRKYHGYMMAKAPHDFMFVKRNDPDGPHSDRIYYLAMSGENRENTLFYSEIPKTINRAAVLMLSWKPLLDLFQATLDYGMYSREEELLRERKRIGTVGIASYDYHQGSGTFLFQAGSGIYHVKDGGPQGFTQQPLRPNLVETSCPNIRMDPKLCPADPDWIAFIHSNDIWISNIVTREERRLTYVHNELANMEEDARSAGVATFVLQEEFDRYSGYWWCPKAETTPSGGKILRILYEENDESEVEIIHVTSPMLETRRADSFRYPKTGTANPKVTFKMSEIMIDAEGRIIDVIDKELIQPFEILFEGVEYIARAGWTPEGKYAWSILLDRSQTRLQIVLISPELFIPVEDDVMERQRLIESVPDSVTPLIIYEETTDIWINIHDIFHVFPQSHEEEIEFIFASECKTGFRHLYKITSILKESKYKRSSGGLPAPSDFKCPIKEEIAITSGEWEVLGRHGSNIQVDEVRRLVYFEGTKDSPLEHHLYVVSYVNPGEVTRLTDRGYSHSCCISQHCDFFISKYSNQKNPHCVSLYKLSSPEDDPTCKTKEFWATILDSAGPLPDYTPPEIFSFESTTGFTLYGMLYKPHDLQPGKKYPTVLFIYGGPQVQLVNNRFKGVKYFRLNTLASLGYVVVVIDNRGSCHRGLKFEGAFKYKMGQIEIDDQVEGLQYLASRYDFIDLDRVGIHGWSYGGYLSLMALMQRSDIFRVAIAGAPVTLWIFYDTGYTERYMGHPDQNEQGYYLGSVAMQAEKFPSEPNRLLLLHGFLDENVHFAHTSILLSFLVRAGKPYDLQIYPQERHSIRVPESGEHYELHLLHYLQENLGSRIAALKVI
Excerpt: as §1

T1 sequence (P14740 37-767 limits assumed): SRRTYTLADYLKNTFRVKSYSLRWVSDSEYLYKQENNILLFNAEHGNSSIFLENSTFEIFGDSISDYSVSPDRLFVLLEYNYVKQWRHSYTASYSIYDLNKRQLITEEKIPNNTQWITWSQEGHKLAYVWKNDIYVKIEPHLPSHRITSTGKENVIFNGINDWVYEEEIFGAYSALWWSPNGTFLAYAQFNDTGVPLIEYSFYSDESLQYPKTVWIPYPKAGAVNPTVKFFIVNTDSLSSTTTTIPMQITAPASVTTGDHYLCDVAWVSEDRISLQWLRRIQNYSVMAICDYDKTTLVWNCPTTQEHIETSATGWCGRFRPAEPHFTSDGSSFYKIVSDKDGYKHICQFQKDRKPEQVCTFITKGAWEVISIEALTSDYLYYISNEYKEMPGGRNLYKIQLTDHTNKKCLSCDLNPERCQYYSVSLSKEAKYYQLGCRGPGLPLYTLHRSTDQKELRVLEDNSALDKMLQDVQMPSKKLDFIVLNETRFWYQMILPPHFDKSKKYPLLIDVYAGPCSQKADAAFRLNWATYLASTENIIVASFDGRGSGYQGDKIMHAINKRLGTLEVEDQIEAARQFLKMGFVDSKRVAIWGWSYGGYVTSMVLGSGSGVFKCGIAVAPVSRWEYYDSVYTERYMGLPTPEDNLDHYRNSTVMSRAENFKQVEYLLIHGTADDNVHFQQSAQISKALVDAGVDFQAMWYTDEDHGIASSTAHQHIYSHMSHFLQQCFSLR

With `CC#CCn1c(N2CCC[C@@H](N)C2)nc2c1c(=O)n(Cc1ncccc1C#N)c(=O)n2C` [1-[(3-cyano-pyridin-2-yl)methyl]-3-methyl-7-(2-butyn-1-yl)-8-[3-(R)-amino-piperidin-1-yl]-xanthine monohydrochloride] the IC50 (plasma DPP IV) was about 0.0008 µM, the “reduction of AUC for glucose excursion in OGTT” value ([1]; 1 mg/kg 16 hours before OGTT (delayed setting)) was 29% and the ED50 ([1]; acute setting) was 0.2 mg/kg. The ED50 ([1]; delayed setting) was 0.3 mg/kg, the “suppression of AUC for glucose excursion in OGTT” value ([1]; acute dosing of 1 mg/kg) was 38% and the “inhibitory effect on plasmin” value (plasmin) was “did not exert any inhibitory effect”. For the same molecule, the “inhibitory effect on Prolyl-Oligo Peptidase” value [2] was “did not exert any inhibitory effect” and the IC50 (DPP 8) was 95 µM.

— US20140228287A1, “1-[(3-CYANO-PYRIDIN-2-YL)METHYL]-3-METHYL-7-(2-BUTYN-1-YL)-8-[3-(R)-AMINO-PIPERIDIN-1-YL]-AXANTHINE FOR THE TREATMENT OF A METABOLIC DISORDER OF A PREDOMINANTLY CARNIVOROUS NON-HUMAN ANIMAL” (BOEHRINGER INGELHEIM VETMEDICA GMBH, priority 2010, published 2014)
